Assay results published in patent US20250387481A1, “PRE-TREATED T CELLS FOR USE AS A MEDICAMENT” (STICHTING HET NEDERLANDS KANKER INSTITUUT-ANTONI VAN …, priority 2022, published 2025).

What was measured:
[1] = test system: KB1P tumors; experiment: Drug treatment in vivo of mice bearing KB1P tumors; parameters: species or system mouse
Method: For tumor generation, tumor organoids were transplanted into the 4th mammary fat pad of FVB female mice. Rimadyl (0.067 mg/ml, Zoetis) was administered to mice in the drinking water from 24 h before surgery and for 48 h after surgery. Mice were also treated with temgesic (0.1 mg/kg, Indivior Europe Limited), 1 hr before and 12 h after surgery. Mice were anesthetized with isoflurane (2%, v/v) and their eyes were covered with duratears (Alcon). About 100,000 single cells derived from KB1P organoids or 200,000 single cells derived from MMTV-PyMT organoids were injected in 30 μl of BME (Amsbio, Cat. No. 3533-005-02). Mice were weighed and monitored three times a week after transplantation of tumor organoids. Tumor volume was measured with calipers three times weekly. The researcher performing the measurement of tumor volume was blinded to the treatment group. For survival experiments, endpoint was reached when tumor reached 2000 mm3. For specific experiments, reference is made to the schematic representations of treatment timelines depicted in the figures.
Once tumors were established and reached a size of ˜7×7 mm, mice were randomized into treatment groups with the following drug dosages and timeline: • AC+T treatment: every 14 days, cyclophosphamide (144 mg/kg, administered via intraperitoneal injection), doxorubicin (5 mg/kg, administered via intravenous injection) and docetaxel (25 mg/kg, resuspended in acetonitrile containing 0.1% acetic acid, administered via intravenous injection). Doxorubicin hydrochloride (Adriamycin) and cyclophosphamide (C), when combined in a treatment, are herein referred to as “AC”. Taxanes, as broadly described and disclosed herein, are referred to as “T”. In one example, said taxane is docetaxel. • AC treatment: every 14 days, cyclophosphamide (144 mg/kg, administered via intraperitoneal injection) and doxorubicin (5 mg/kg administered via intravenous injection). • Docetaxel treatment: every 14 days, docetaxel (25 mg/kg, re-suspended in acetonitrile containing 0.1% acetic acid and administered via intravenous injections). • Vehicle control for chemotherapy: every 14 days, the same volume of the vehicle as the corresponding chemotherapy was administered to mice. […]

[2] = test system: MMTV-PyMT organoids; experiment: Co-culture of pre-treated splenic T cells with MMTV-PyMT organoids (MTT, cleaved-caspase 3); type: cell-based, mouse; conditions: CD4 or CD8 T cells pre-treated with docetaxel
Method: Preparation of T cells: T cells isolated from mouse spleens or from mouse mammary tumors were cultured in Roswell Park Memorial Institute (RPMI) 1640 Medium (Thermo Fisher Scientific, Cat. No. 21875034) containing FBS (10%, Thermo Fisher Scientific, Cat. No. A4766801), Penicillin/streptomycin (10,000 U/ml; Thermo Fisher Scientific, Cat. No. 15140-122), IL2 (Thermo Fisher Scientific, Cat. No. PMC0025), β-mercaptoethanol (50 μmol/L) and Ultraglutamine (2 mmol/L, Lonza, Cat. No. BE17-605E/U1). T cells were kept in 20% O2, 5% CO2 and at 37 degrees Celsius
In order to assess the direct effects of docetaxel on T cell activation for T cells isolated from the spleen, T cells were cultured in the absence of CD3 and CD28 antibodies.
For T cells isolated from mouse mammary tumors, T cells were directly co-cultured with tumor organoids after FACS isolation. For T cells isolated from the spleen, T cells were treated for 72 h with PBS or with docetaxel (docetaxel 10 nmol/L), in the presence or absence of an LCKi (10 μmol/L, Merck Millipore, Cat. No. 213743-31-8). To evaluate the docetaxel-specificity of our observations, T cells were treated with paclitaxel 10 nmol/L or carboplatin 50 μmol/L for 72 h. […]
Following co-culture, medium was removed, and cultures were washed in PBS to remove T cells. […] Plates were read with a 565 nm wavelength. […]

CC(=O)O[C@@]12CO[C@@H]1C[C@H](O)[C@@]1(C)C(=O)[C@H](O)C3=C(C)[C@@H](OC(=O)[C@H](O)[C@@H](NC(=O)OC(C)(C)C)c4ccccc4)C[C@@](O)([C@@H](OC(=O)c4ccccc4)[C@H]21)C3(C)C [docetaxel]
anti-tumor effects of docetaxel (survival) upon T cell depletion ([1]; depletion of CD4 alone, CD8 alone or both): abrogated the anti-tumor effects | tumor outgrowth ([1]; docetaxel 25 mg/kg intravenous every 14 days vs vehicle): delayed tumor outgrowth | CD4 and CD8 T cell infiltration (immunohistochemistry) ([1]; docetaxel vs vehicle): enhanced CD4 and CD8 T cell infiltration | accumulation of mitotic figures in tumors ([1]; tumors isolated 24 h after the second docetaxel administration): did not observe an accumulation of mitotic figures | T cell-mediated killing in presence or absence of LCKi [2]: TCR-independent increase of T cell-mediated killing
